{"source": "patent US5814488A", "about": "(priority 1993, dated 1998)", "key": {"[1]": {"conditions": "clinical use; cited from earlier work"}, "Escherichia coli": {"tested_on": "Escherichia coli", "assay": "Comparison of MIC and MBC (Tables 5 and 6)", "format": "cell-based", "description": "(§1) […]. […] […]"}, "Shigella": {"tested_on": "Shigella", "assay": "Comparison of MIC and MBC (Tables 5 and 6)", "format": "cell-based", "description": "as §1"}, "S. aureus": {"tested_on": "S. aureus", "assay": "Comparison of MIC and MBC (Tables 5 and 6)", "format": "cell-based", "conditions": "S. aureus, 31 strains", "description": "as §1"}, "Pseudomonas sp.": {"tested_on": "Pseudomonas sp.", "assay": "Comparison of MIC and MBC (Tables 5 and 6)", "format": "cell-based", "conditions": "Pseudomonas sp.", "description": "as §1"}, "Klebsiella pneumoniae": {"tested_on": "Klebsiella pneumoniae", "assay": "Comparison of MIC and MBC (Tables 5 and 6)", "format": "cell-based", "description": "as §1"}, "[2]": {"assay": "Nephrotoxicity to rat after i.m. administration", "conditions": "gentamicin at 150 MKD and 100 MKD from seventh day"}, "[3]": {"assay": "Ototoxicity to guinea pig: cochleatoxicity"}, "[4]": {"conditions": "Table 5, 20 strains, unit assumed"}, "[5]": {"conditions": "Table 6, 20 strains, in µg/mL (unit assumed)"}, "[6]": {"conditions": "Table 6, 20 strains, unit assumed"}, "[7]": {"conditions": "Table 5, 10 strains, unit assumed"}, "[8]": {"conditions": "Table 5, number 2, unit assumed"}}, "data": [{"substance": "Gentamicin", "values": [{"measurement": "side-effects", "setting": "[1]", "value": "side-effects of ototoxicity and nephrotoxicity"}, {"measurement": "MBC50", "setting": "Escherichia coli; [4]", "value": 0.5, "unit": "µg/mL"}, {"measurement": "MBC90", "setting": "Escherichia coli; [4]", "value": 1, "unit": "µg/mL"}, {"measurement": "MIC50", "setting": "Escherichia coli; [4]", "value": 0.125, "unit": "µg/mL"}, {"measurement": "MIC90", "setting": "Escherichia coli; [4]", "value": 0.25, "unit": "µg/mL"}, {"measurement": "MBC range", "setting": "Escherichia coli; [5]", "value": "0.125-8"}, {"measurement": "MBC90", "setting": "Escherichia coli; [6]", "value": 1, "unit": "µg/mL"}, {"measurement": "MBC50", "setting": "Shigella; [7]", "value": 0.25, "unit": "µg/mL"}, {"measurement": "MBC90", "setting": "Shigella; [7]", "value": 1, "unit": "µg/mL"}, {"measurement": "MIC90", "setting": "Shigella; [7]", "value": 0.25, "unit": "µg/mL"}, {"measurement": "MBC range", "setting": "Shigella; Table 6, 10 strains, in µg/mL (unit assumed)", "value": "0.125-1"}, {"measurement": "MBC90", "setting": "Shigella; Table 6, 10 strains, unit assumed", "value": 1, "unit": "µg/mL"}, {"measurement": "MBC50", "setting": "S. aureus; Table 5, unit assumed", "value": 0.5, "unit": "µg/mL"}, {"measurement": "MBC90", "setting": "S. aureus; Table 5, unit assumed", "value": 2, "unit": "µg/mL"}, {"measurement": "MIC50", "setting": "S. aureus; Table 5, unit assumed", "value": 0.125, "unit": "µg/mL"}, {"measurement": "MIC90", "setting": "S. aureus; Table 5, unit assumed", "value": 0.5, "unit": "µg/mL"}, {"measurement": "MBC range", "setting": "S. aureus; Table 6, in µg/mL (unit assumed)", "value": 0.062}, {"measurement": "MBC90", "setting": "S. aureus; Table 6, unit assumed", "value": 2, "unit": "µg/mL"}, {"measurement": "MBC50", "setting": "Pseudomonas sp.; [8]", "value": 2, "unit": "µg/mL"}, {"measurement": "MBC90", "setting": "Pseudomonas sp.; [8]", "value": 8, "unit": "µg/mL"}, {"measurement": "MIC50", "setting": "Pseudomonas sp.; [8]", "value": 2, "unit": "µg/mL"}, {"measurement": "MIC90", "setting": "Pseudomonas sp.; [8]", "value": 4, "unit": "µg/mL"}, {"measurement": "MBC range", "setting": "Pseudomonas sp.; [5]", "value": "0.5-16"}, {"measurement": "MBC90", "setting": "Pseudomonas sp.; [6]", "value": 8, "unit": "µg/mL"}, {"measurement": "MBC50", "setting": "Klebsiella pneumoniae; [4]", "value": 0.25, "unit": "µg/mL"}, {"measurement": "MBC90", "setting": "Klebsiella pneumoniae; [4]", "value": 1, "unit": "µg/mL"}, {"measurement": "MIC50", "setting": "Klebsiella pneumoniae; [4]", "value": 0.125, "unit": "µg/mL"}, {"measurement": "MIC90", "setting": "Klebsiella pneumoniae; [4]", "value": 0.25, "unit": "µg/mL"}, {"measurement": "MBC range", "setting": "Klebsiella pneumoniae; [5]", "value": "0.062-2"}, {"measurement": "MBC90", "setting": "Klebsiella pneumoniae; [6]", "value": 1, "unit": "µg/mL"}, {"measurement": "dead animals", "setting": "[2]", "value": "gradually increased"}, {"measurement": "hair cell morphology", "setting": "[3]; high dosage", "value": "large number of necrotized hair cell, even stand cell and nerve cell were observed"}, {"measurement": "auditory function", "setting": "[3]; high dosages", "value": "nearly all the auditory function of the animals were lost"}, {"measurement": "hair cell morphology", "setting": "[3]; low and middle dosages", "value": "scattered necrotized hair cell and scar formation were observed"}, {"measurement": "ABR threshold", "setting": "[3]; middle dosages", "value": "increases of ABR threshold were observed"}]}]}
